This is an account of results in PubChem BioAssay AID1996.

Converted amounts (≈) assume the structure as drawn.

For this data set the following is noted: buffer; pH 7.4; 200.0 µM.
As to `CCc1ccccc1NC(=O)C1CCCN(c2nccc(C)n2)C1` (stereo not drawn), the solubility (kinetic) (as a rule, solubility judged after dilution from a stock solution rather than from solid) is 3.4 µg/mL (≈ 10.5 µM).

`O=C(NC1CCCCC1)C(=S)NCCc1ccccc1` gave a solubility (kinetic) of 1.4 µg/mL (≈ 4.82 µM).

As to `O=C(Cc1ccccc1F)Nc1cc(S(=O)(=O)N2CCOCC2)ccc1N1CCCC1`, the kinetic solubility stood at 15.1 µg/mL (≈ 33.7 µM).

Take `CN(CC(=O)Nc1ccccc1Cl)C1CCCCC1`: the kinetic solubility turned out to be 14.7 µg/mL (≈ 52.4 µM).

`Cc1ccc(NC(=S)Nc2ccc(OC(F)F)c(Cl)c2)cc1F` had a kinetic solubility of 3.5 µg/mL (≈ 9.7 µM).

Take `Cl.c1cncc(CNC2CCCCC2)c1`: the solubility (kinetic) was above 34 µg/mL.

`COc1cc2c(cc1OC)C(NC(=O)C(F)(F)F)C/C2=N\O` (stereo not drawn): the kinetic solubility is above 47.7 µg/mL.

Compound `O=C(NCCCN1CCOCC1)c1ccc2ccccc2c1` returned a kinetic solubility above 44.8 µg/mL.

Take `CCc1c(C)nc(SCC(=O)N2CCCCC2)[nH]c1=O`: the kinetic solubility was above 44.3 µg/mL.

`CC(=O)CC1(O)C(=O)Nc2ccccc21` (stereo not drawn): the solubility (kinetic) amounted to 27.6 µg/mL (≈ 134 µM).

As to `O=C(O)c1ccc(S(=O)(=O)NC2CC2)cc1`, the solubility (kinetic) is above 36.2 µg/mL.

On to `ClC1(Cl)CC1CSc1nc2ccccc2[nH]1` (stereo not drawn), for which the kinetic solubility is 39.8 µg/mL (≈ 146 µM).

For the compound `O=C(NCc1ccc2c(c1)OCO2)c1ccco1`, the kinetic solubility is above 36.8 µg/mL.

As to `C=CCOc1ccc(/C=C/C(=O)OCC(=O)NC2CCCCCC2)cc1`, the kinetic solubility was below 0.8 µg/mL.

Take `COCCn1c(C)cc(/C=C2/SC(=O)N(C(C)C(=O)OC)C2=O)c1C` (stereo not drawn): the solubility (kinetic) was found to be 36 µg/mL (≈ 98.2 µM).

On to `CCNC(=O)COC(=O)c1sccc1C`, for which the solubility (kinetic) was above 34.1 µg/mL.

Take `Cc1cccc(OCCCn2c(=O)oc3ccc(C)cc32)c1`: the solubility (kinetic) came out at 3.3 µg/mL (≈ 11.1 µM).

For `O=S(=O)(NCC1COc2ccccc2O1)c1ccccc1F` (stereo not drawn), the kinetic solubility was above 48.5 µg/mL.

In turn, `CCC(C)[C@H](NC(=O)NCCC1=CCCCC1)C(=O)OC` (stereo partly drawn) registered a solubility (kinetic) above 44.5 µg/mL.

`COc1ccc(C(=O)CC(=O)C(=O)Nc2ccc(C)c(C)c2)cc1` had a kinetic solubility of 12.4 µg/mL (≈ 38.1 µM).

As for `CC(=O)CSc1ccc(-c2nc3cc(C)c(C)cc3[nH]2)cn1`, the kinetic solubility was 3.9 µg/mL (≈ 12.5 µM).

`CCN(CC)c1c([N+](=O)[O-])c(=O)oc2ccccc12` registered a kinetic solubility above 39.3 µg/mL.

With `COCCNC(=O)C(=O)Nc1ccc(Cl)cc1C`, the solubility (kinetic) was above 40.6 µg/mL.

`Brc1c(-c2ccccc2)nc2n1Cc1ccccc1-2` returned a kinetic solubility of 0.6 µg/mL (≈ 1.93 µM).

Turning to `COCCCNC(=O)c1cc2c(=O)n3cccc(C)c3nc2s1`, the kinetic solubility was found to be 6.3 µg/mL (≈ 19 µM).

Take `Cc1cccc(/N=C2/NC(=O)C(Cc3ccccc3)S2)n1` (stereo not drawn): the kinetic solubility stood at 0.3 µg/mL (≈ 1.01 µM).

Regarding `CN(C)C=Nc1nonc1-c1ccc(Cl)cc1`, the solubility (kinetic) came out at 1.4 µg/mL (≈ 5.58 µM).

For the compound `CC1CN(CC(=O)Nc2ccc([N+](=O)[O-])cc2Br)CC(C)O1` (stereo not drawn), the kinetic solubility is 6.4 µg/mL (≈ 17.2 µM).

On to `N#Cc1ccccc1CN1C(=O)NC2(CCCCCC2)C1=O`, for which the solubility (kinetic) was above 44.6 µg/mL.

Compound `Cn1cc([N+](=O)[O-])cc1-c1nc2ccccc2n1C` displayed a solubility (kinetic) above 38.4 µg/mL.

As to `CN(C(=O)c1ccc(N2CCCCC2)c([N+](=O)[O-])c1)C1CCS(=O)(=O)C1` (stereo not drawn), the solubility (kinetic) was above 57.2 µg/mL.

In the case of `Cn1cccc2[nH]c(=O)nc1-2`, the kinetic solubility amounted to 15.5 µg/mL (≈ 104 µM).

For `O=C(CN1C(=O)NC2(CCCC2)C1=O)Nc1ccc(F)c(Cl)c1`, the kinetic solubility was above 51 µg/mL.

The compound `Cc1ccc(NC(=O)Cn2c(C)csc2=O)cc1` gave a kinetic solubility above 39.3 µg/mL.

`Oc1ccc(Cl)cc1CNc1cccc2cccnc12` displayed a solubility (kinetic) of 0.5 µg/mL (≈ 1.76 µM).

`CNC(=S)Nc1cccc(C(=O)O)c1` returned a kinetic solubility above 31.5 µg/mL.

As to `CC(C)CN1C(=O)C(=Nc2cccnc2)c2ccccc21`, the solubility (kinetic) was above 41.9 µg/mL.

With `O=C(COc1ccccc1F)OCC(=O)c1ccc([N+](=O)[O-])cc1`, the kinetic solubility was found to be 46.8 µg/mL (≈ 140 µM).

In the case of `Cc1ccc(NC(=O)COC(=O)Cn2cnc3c2c(=O)n(C)c(=O)n3C)cc1`, the kinetic solubility is above 57.8 µg/mL.

Take `COc1ccc(S(=O)(=O)N2CCN(c3ccccn3)CC2)cc1[N+](=O)[O-]`: the solubility (kinetic) came out at 5.8 µg/mL (≈ 15.3 µM).

The compound `O=C(Nc1ccccc1Cl)OCc1cncs1` registered a solubility (kinetic) of 35.1 µg/mL (≈ 131 µM).

Compound `CCN(CC)C(=O)c1sc(NC(=O)C(C)C)c(C#N)c1C` showed a solubility (kinetic) above 46.1 µg/mL.

`Cc1ncoc1C(=O)Nc1ncc([N+](=O)[O-])s1` registered a solubility (kinetic) above 38.1 µg/mL.

Regarding `Cc1cc(N2CCOCC2)nc2ccc(Cl)cc12`, the solubility (kinetic) is 1.7 µg/mL (≈ 6.47 µM).

Consider `O=C(Nc1cccc(O)c1)c1ccc(S(=O)(=O)N2CCCCCC2)cc1`, for which the solubility (kinetic) came out at 3.7 µg/mL (≈ 9.88 µM).

In turn, `Cc1nc(/C(N)=N/OC(=O)c2cccc(Cl)c2)c(C(F)(F)F)o1` returned a solubility (kinetic) above 52.2 µg/mL.

The compound `CCc1ccccc1NC(=O)CCC(=O)c1cccs1` yielded a kinetic solubility of 32.1 µg/mL (≈ 112 µM).

As to `O=C(CSc1ccc(C(F)(F)F)cc1[N+](=O)[O-])N1CCOCC1`, the solubility (kinetic) came to 22.9 µg/mL (≈ 65.4 µM).

`CC(=O)Nc1ccc(NCc2ccc(C)s2)cc1` returned a solubility (kinetic) above 39.1 µg/mL.

As for `Cc1ccc(C(=O)CNc2ccc(C)cc2C)cc1`, the kinetic solubility turned out to be 2.8 µg/mL (≈ 11.1 µM).

For `Cc1onc(-c2ccccc2Cl)c1C(=O)OCC(=O)N1CCCCC1`, the solubility (kinetic) is above 54.4 µg/mL.

Take `CC1CCC(NC(=O)CCN2C(=O)C3CC=CCC3C2=O)CC1` (stereo not drawn): the solubility (kinetic) was above 47.8 µg/mL.

`CCSc1ccccc1C(=O)N=C1NC(=O)CC2C(=O)NCCN12` (stereo not drawn) gave a kinetic solubility of 16.9 µg/mL (≈ 48.8 µM).
